The record followed here is patent publication US10004732B2 (Novartis AG, priority 2014, dated 2018).

For series [1], the target named is T1, PI 3-kinase alpha (Homo sapiens, UniProt P42336). Kind of series: Kinase Glo Luminescent Kinase Assay (Kglo), assay A. In kind it is biochemical. To be noted: read-out: Assay A PI3Kα IC50. (In general: Kinase-Glo reads ATP consumption through a luciferase reaction.)
Target sequence in this assay (P42336 whole entry): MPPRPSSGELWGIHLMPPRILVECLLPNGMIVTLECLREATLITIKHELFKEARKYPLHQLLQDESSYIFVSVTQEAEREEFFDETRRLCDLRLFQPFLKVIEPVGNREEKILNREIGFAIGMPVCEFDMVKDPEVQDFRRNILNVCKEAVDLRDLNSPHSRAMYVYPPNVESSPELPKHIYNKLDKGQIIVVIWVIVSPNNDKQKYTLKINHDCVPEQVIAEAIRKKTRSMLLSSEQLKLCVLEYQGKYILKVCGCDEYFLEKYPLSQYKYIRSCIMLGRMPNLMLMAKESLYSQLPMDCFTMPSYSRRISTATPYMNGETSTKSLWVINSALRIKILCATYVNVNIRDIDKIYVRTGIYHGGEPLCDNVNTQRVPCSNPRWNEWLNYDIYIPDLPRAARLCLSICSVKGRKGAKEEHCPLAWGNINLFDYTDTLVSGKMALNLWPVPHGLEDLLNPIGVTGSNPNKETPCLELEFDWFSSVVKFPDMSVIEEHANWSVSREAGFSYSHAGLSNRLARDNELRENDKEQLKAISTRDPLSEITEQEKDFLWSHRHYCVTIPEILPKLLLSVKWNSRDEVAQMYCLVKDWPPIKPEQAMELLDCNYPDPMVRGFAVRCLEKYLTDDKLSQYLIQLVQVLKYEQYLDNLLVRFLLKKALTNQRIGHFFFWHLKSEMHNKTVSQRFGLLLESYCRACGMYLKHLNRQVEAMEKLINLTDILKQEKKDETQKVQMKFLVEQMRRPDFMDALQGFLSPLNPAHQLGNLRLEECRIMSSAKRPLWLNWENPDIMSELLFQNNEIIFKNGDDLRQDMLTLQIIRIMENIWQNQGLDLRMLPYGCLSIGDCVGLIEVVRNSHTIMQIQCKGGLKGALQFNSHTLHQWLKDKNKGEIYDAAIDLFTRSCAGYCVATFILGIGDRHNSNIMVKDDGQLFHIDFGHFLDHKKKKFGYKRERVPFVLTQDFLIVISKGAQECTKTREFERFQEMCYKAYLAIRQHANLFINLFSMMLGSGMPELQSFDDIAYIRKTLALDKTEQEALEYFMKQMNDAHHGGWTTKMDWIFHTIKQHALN
Series [2] concerns the target Vps34 (Homo sapiens, UniProt Q8NEB9). Put plainly: Kinase Glo Luminescent Kinase Assay (Kglo), assay C. Type of series: biochemical. To be noted: read-out: Assay C VPS34 IC50.
In series [3] the target is PI 4-kinase beta (Homo sapiens, UniProt Q9UBF8). Put plainly: Kinase Glo Luminescent Kinase Assay (Kglo), assay D. In kind it is biochemical. Conditions: read-out: Assay D PI4Kβ IC50.
PI 4-kinase beta, sequence (Q9UBF8 whole entry): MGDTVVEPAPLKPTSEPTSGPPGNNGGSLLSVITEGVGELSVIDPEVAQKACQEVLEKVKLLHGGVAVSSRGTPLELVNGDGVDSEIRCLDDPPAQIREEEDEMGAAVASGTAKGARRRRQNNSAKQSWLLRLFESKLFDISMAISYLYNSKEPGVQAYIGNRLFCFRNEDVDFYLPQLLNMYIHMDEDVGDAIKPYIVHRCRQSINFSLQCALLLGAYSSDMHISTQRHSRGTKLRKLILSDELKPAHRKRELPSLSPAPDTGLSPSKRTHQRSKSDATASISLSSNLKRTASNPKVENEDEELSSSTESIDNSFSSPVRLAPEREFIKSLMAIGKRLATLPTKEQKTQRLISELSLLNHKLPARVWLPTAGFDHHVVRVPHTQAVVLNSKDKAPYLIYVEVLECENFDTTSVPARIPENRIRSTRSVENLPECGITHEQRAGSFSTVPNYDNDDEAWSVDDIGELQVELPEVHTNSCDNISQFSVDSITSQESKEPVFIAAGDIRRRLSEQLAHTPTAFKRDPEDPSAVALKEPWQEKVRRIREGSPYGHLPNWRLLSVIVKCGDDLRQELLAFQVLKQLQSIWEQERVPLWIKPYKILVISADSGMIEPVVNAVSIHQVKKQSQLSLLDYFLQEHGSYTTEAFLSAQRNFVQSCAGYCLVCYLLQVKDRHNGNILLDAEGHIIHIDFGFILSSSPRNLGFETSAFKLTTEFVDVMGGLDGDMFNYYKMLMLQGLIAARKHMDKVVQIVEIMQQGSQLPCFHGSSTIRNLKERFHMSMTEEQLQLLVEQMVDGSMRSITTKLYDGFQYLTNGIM
Series [4] concerns the target T2, PI 3-kinase gamma (Homo sapiens, UniProt P48736). Kind of series: TR-FRET Adapta assay, assay E. Type of series: biochemical. Conditions: read-out: Assay E PI3Kγ IC50. Background: Time-resolved FRET reads energy transfer from a long-lived donor to a nearby acceptor.
In series [5] the target is T2, PI 3-kinase gamma. Put plainly: Cellular U937 AKT assay K1 (MSD). Type of series: cell-based. Conditions: U937 cells, K1 format; read-out: Assay K1 PI3Kγ IC50.
In series [6] the target is T2, PI 3-kinase gamma. Kind of series: Cellular U937 AKT assay K2 (HTRF). In kind it is cell-based. To be noted: U937 cells, K2 format; read-out: Assay K2 PI3Kγ IC50.
Series [7] relates to IL-8-induced neutrophil shape change in human whole blood. Kind of series: Whole blood neutrophil shape change assay (L). Type of series: cell-based. To be noted: IL-8, human whole blood, read-out: Assay L WBSC IC50.
Series [8] is described as follows: Microsomal clearance assay (M). To be noted: intrinsic clearance in rat liver microsomes.
Description: The experiments were performed in 96-well glass plates at 37° C. on an automated Tecan EVO platform. Test compounds at a concentration of 10 mM in pure DMSO were diluted 1:1000 in water to 10 μM. […] Reactions were initiated by the addition of 150 μL of a cofactor solution containing 2 mM NADPH.
The target of series [9] is T3, PI 3-kinase beta (Homo sapiens, UniProt P42338). Put plainly: Kinase Glo Luminescent Kinase Assay (Kglo), assay B. To be noted: read-out: Assay B PI3Kβ IC50. In kind it is biochemical.
Target sequence in this assay (P42338 whole entry): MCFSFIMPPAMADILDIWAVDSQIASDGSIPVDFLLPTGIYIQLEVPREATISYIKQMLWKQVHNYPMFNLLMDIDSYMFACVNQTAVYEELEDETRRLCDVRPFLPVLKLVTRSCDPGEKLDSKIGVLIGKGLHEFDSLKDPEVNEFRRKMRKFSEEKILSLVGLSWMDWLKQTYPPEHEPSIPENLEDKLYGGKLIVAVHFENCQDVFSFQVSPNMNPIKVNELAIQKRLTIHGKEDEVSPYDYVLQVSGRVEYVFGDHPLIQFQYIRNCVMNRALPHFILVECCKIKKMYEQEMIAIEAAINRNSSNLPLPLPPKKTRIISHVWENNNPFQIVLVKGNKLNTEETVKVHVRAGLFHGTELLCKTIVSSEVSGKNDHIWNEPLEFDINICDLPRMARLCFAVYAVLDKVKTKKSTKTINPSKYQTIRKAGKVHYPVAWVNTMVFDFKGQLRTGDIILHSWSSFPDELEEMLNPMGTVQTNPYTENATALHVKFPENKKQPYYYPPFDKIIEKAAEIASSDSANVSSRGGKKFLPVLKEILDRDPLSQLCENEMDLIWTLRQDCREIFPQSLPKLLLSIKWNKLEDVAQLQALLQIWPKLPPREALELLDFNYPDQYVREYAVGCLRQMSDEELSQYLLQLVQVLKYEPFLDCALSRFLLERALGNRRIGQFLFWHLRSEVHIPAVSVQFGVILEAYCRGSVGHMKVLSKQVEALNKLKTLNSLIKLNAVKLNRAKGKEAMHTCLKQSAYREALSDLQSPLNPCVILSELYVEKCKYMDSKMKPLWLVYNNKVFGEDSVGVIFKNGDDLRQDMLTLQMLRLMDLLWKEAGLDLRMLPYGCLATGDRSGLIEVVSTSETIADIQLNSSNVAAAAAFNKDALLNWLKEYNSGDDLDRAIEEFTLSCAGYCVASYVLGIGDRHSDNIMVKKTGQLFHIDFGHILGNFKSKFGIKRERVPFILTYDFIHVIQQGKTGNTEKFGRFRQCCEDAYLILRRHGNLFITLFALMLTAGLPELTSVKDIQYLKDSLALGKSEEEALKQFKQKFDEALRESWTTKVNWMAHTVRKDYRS
Target sequence in this assay (P27986 461-568 partner): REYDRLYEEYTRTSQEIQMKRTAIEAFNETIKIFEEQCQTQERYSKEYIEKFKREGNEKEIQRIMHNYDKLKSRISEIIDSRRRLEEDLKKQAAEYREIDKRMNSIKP
Series [10] addresses mTOR (Homo sapiens, UniProt P42345). Put plainly: Lanthascreen kinase binding assay, assay G. Conditions: read-out: Assay G mTOR IC50.
Description: Lanthascreen™ Kinase Binding Assay for mTOR (G)
Binding of an inhibitor to the kinase competes for binding with the tracer, resulting in a loss of FRET.
50 nL of compound dilutions were dispensed onto white 384-well small volume polystyrene plate.
Series [11] deals with T4, PI 3-kinase delta (Homo sapiens, UniProt O00329). Put plainly: TR-FRET Adapta assay, assay F. To be noted: read-out: Assay F PI3Kδ IC50.
Series [12] concerns the target T1, PI 3-kinase alpha. Kind of series: Cellular assay H1, p-Akt (S473) in Rat-1 cells, Surefire format. Type of series: cell-based. To be noted: non-asterisked data: version H1 (Surefire format), Rat-1 cells; read-out: Assay H PI3Kα IC50.
Target sequence in this assay (P42336 whole entry): as the sequence (P42336 whole entry) above
Target sequence in this assay (Q63787 whole entry partner): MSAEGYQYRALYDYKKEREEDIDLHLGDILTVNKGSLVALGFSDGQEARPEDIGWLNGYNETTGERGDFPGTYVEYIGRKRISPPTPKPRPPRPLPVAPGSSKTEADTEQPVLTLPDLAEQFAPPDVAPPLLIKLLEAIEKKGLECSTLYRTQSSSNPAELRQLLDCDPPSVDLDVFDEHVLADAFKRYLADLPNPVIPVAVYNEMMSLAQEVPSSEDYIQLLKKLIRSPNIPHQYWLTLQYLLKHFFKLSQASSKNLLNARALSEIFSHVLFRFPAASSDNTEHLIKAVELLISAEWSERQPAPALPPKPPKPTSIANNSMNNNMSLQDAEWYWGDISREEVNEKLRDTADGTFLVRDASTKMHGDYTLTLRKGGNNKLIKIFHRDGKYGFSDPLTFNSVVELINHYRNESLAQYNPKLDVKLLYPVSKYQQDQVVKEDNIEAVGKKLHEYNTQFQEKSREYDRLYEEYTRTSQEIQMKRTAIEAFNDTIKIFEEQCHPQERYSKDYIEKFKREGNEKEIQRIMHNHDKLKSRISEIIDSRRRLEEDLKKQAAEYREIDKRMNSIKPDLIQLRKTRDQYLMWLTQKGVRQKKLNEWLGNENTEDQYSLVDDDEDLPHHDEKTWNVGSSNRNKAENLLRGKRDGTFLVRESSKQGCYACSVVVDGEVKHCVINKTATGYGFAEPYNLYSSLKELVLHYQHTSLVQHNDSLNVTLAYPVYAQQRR
The target of series [13] is T3, PI 3-kinase beta. Put plainly: Cellular assay I1, p-Akt (S473) in Rat-1 cells, Surefire format. In kind it is cell-based. To be noted: non-asterisked data: version I1 (Surefire format), Rat-1 cells; read-out: Assay I PI3Kβ IC50.
Target sequence in this assay (P42338 whole entry): as the sequence (P42338 whole entry) above
Target sequence in this assay (Q63787 whole entry partner): as the sequence (Q63787 whole entry partner) above
Series [14] deals with T4, PI 3-kinase delta. Put plainly: Cellular assay J1, p-Akt (S473) in Rat-1 cells, Surefire format. In kind it is cell-based. To be noted: non-asterisked data: version J1 (Surefire format), Rat-1 cells; read-out: Assay J PI3Kδ IC50.
Excerpt: Cellular Assays for PI 3-Kinase Alpha (H1), Beta (I1) and Delta (J1): Surefire Format
AlphaScreen (Amplified Luminescent Proximity Homogeneous Assay, ALPHA, Perkin Elmer) is a non-radioactive bead-based proximity assay technology to study biomolecular interactions in a homogenous microtiter plate format. The brand name SureFire denotes AlphaScreen assays that are adapted to quantify the phosphorylation of endogenous cellular proteins in cell lysates, by using matched antibody pairs, which consist of an anti-phospho-kinase and an anti-kinase antibody. The assay allows characterization of kinase signaling in cells as well as measurement of kinase inhibitor effects.
Using Rat-1 cells stably expressing myr-HA-tagged versions of the human PI3Kdelta, PI3Kalpha, or PI3Kbeta p110 catalytic subunit isoforms, the assay was developed as a two-plate protocol in a 384-well format.
For compound testing, the cells were seeded at a density of 4000 (Rat-1_PI3Kdelta), 7500 (Rat-1_PI3Kalpha), or 6200 (Rat-1_PI3Kbeta) cells in 20 μl complete growth medium into cell culture treated 384-well plates and were grown at 37° C./5% CO2/90% humidity for 24 h. Shortly before compound transfer, the complete medium was removed, 30 μl assay buffer (DMEM high glucose, 1×MEM NEAA, 10 mM HEPES, 2 mM L-glutamine, 0.1% (w/v) BSA) was added and 10 μl of the compound predilutions were transferred to the cells.

pIC50: −log10 of the molar value. Counter-ions that a name gives are not always drawn. Like-named read-outs stand apart in the source and are kept apart here.

T2 sequence (P48736 whole entry): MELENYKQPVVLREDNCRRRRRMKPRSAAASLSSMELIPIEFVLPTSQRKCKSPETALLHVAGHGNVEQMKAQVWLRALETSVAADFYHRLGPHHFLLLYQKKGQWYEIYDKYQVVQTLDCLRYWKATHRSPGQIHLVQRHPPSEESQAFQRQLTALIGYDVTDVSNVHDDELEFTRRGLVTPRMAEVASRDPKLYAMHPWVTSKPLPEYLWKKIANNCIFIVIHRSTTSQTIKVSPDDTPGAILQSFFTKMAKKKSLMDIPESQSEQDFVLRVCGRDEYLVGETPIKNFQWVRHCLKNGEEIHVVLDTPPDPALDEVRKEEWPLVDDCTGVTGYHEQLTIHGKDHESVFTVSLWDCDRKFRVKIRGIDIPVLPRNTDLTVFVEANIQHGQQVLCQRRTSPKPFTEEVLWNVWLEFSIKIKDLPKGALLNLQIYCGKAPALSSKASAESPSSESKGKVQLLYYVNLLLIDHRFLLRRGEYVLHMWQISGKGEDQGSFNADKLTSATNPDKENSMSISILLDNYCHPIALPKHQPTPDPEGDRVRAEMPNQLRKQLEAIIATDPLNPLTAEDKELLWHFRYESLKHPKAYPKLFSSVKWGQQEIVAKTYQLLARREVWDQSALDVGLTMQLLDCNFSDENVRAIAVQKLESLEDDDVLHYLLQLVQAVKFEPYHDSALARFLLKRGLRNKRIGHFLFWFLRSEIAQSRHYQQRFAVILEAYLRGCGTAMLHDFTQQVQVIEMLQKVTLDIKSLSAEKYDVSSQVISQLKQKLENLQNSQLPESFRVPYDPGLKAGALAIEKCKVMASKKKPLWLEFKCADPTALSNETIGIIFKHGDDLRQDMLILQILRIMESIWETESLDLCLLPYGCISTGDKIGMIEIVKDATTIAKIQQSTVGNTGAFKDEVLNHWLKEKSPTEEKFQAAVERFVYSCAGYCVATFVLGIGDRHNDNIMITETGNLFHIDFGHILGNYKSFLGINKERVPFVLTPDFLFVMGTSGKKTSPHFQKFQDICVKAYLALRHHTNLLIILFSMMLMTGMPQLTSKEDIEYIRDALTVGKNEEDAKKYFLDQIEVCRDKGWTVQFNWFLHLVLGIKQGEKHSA

Take `Cc1ccc(S(=O)(=O)NCC[C@@H](O)C(F)(F)F)cc1-c1cnc(N)c(-c2cn(C)nc2C)n1` (single isomer, unassigned) [Example 52b, (R)-3-(5-Amino-6-(1,3-dimethyl-1H-pyrazol-4-yl)pyrazin-2-yl)-4-methyl-N-(4,4,4-trifluoro-3-hydroxybutyl)benzenesulfonamide or (S)-3-(5-Amino-6-(1,3-dimethyl-1H-pyrazol-4-yl)pyrazin-2-yl)-4-methyl-N-(4,4,4-trifluoro-3-hydroxybutyl)benzenesulfonamide]: the negative-log IC50 (pIC50) (as a rule, the negative decadic logarithm of the IC50, by convention in mol/L) is 6.64 in series [1]; less than 5.00 in [2]; 5.38 in series [3]; 7.59 in series [4]; 7.22 in series [5]; 6.47 in [6]. The pIC50 in series [7] was 6.26. Moreover, the “Assay M RLM CI(int)” value in series [8] turned out to be 43 µL/min/mg.

Take `Cc1ccc(S(=O)(=O)NCCN)cc1-c1cnc(N)c(-n2cncn2)n1` [Example 33, N-(2-Amino-ethyl)-3-(5-amino-6-[1,2,4]triazol-1-yl-pyrazin-2-yl)-4-methyl-benzenesulfonamide trifluoroacetic acid salt]: the pIC50 in series [1] was 6.68; in series [9], 6.42; in series [2] it was less than 5.00; in series [3], 6.04; in series [4], 7.33; in series [10] it was 5.82. Besides, the pIC50 in [5] was 5.70; in series [6], 6.21; in series [7] (Homo sapiens, Neutrophil), 6.13; in [11] it was 6.11. Besides, the “Assay M RLM CI(int)” value in series [8] stood at 12 µL/min/mg.

As to `Cc1ncc(-c2nc(-c3cc(S(=O)(=O)NCC4(CO)COC4)ccc3C)cnc2N)s1` [Example 44, 3-(5-Amino-6-(2-methylthiazol-5-yl)pyrazin-2-yl)-N-((3-(hydroxymethyl)oxetan-3-yl)methyl)-4-methylbenzenesulfonamide], the pIC50 is 7.22 in series [1]; 6.62 in series [9]; 5.64 in [2]; 5.80 in series [3]; 8.30 in [4]; 5.15 in series [12]. The negative logarithm of the IC50 (pIC50) in [13] was less than 5.00; in [14], less than 5.00; in [5] it was 7.66; in series [6], 7.23; in series [7] (Homo sapiens, Neutrophil), 6.38; in series [11] it was 6.82. Also, in series [8], the “Assay M RLM CI(int)” value is 37 µL/min/mg.

As to `Cc1ncc(-c2nc(-c3cc(S(=O)(=O)NCC4(O)COC4)ccc3C)cnc2N)s1` [Example 45.11, 3-(5-Amino-6-(2-methylthiazol-5-yl)pyrazin-2-yl)-N-((3-hydroxyoxetan-3-yl)methyl)-4-methylbenzenesulfonamide], the negative logarithm of the IC50 (pIC50) in [1] was 7.40; in series [9] it was 6.54; in series [2], 5.80; in series [3], 5.92; in series [4] it was 8.30; in series [5], 7.92. The pIC50 in [6] is 7.59; in series [7] (Homo sapiens, Neutrophil), 7.10; in [11], 6.89. Moreover, the “Assay M RLM CI(int)” value in [8] came to 43 µL/min/mg.

Turning to `Cc1ccc(S(=O)(=O)NCC(C)(C)O)cc1-c1cnc(N)c(-c2cnn(C)c2C)n1` [Example 46, 3-(5-Amino-6-(1,5-dimethyl-1H-pyrazol-4-yl)pyrazin-2-yl)-N-(2-hydroxy-2-methylpropyl)-4-methylbenzenesulfonamide], the pIC50 was 6.66 in series [1]; 6.09 in [9]; less than 5.00 in series [2]; less than 5.00 in series [3]; 7.59 in series [4]; less than 5.00 in series [10]. Moreover, the negative logarithm of the IC50 (pIC50) in [5] is 6.84; in series [6], 6.48; in series [7] (Homo sapiens, Neutrophil), 6.14; in series [11] it was 6.35. Further, the “Assay M RLM CI(int)” value in [8] is 24 µL/min/mg.

As for `Cc1ccc(S(=O)(=O)NCCC(C)(C)O)cc1-c1cnc(N)c(-c2cnn(C)n2)n1` [Example 85, 3-(5-Amino-6-(2-methyl-2H-1,2,3-triazol-4-yl)pyrazin-2-yl)-N-(3-hydroxy-3-methylbutyl)-4-methylbenzenesulfonamide], the negative-log IC50 (pIC50) in series [1] is 7.05; in [9] it was 5.92; in series [2], less than 5.00; in [3], less than 5.00; in [4], 7.68; in series [10], 5.10. The negative-log IC50 (pIC50) in [5] is 7.39; in series [6], 7.19; in series [7] (Homo sapiens, Neutrophil), 6.30; in [11], 6.92. Besides, the “Assay M RLM CI(int)” value in series [8] came out at 73 µL/min/mg.

As to `Cc1ccc(S(=O)(=O)NOC(C)(C)C)cc1-c1cnc(N)c(-n2cncn2)n1` [Example 112.1, 3-(5-Amino-6-(1H-1,2,4-triazol-1-yl)pyrazin-2-yl)-N-(tert-butoxy)-4-methylbenzenesulfonamide], the pIC50 was 6.54 in [1]; 5.77 in series [9]; less than 5.00 in series [2]; 5.74 in series [3]; 7.48 in series [4]; 5.22 in [10]. Besides, the negative-log IC50 (pIC50) was 6.10 in [12]; 5.83 in series [13]; 6.42 in series [14]; 7.04 in series [5]; 7.20 in [6]; 5.88 in [7] (Homo sapiens, Neutrophil). Also, the negative logarithm of the IC50 (pIC50) in [11] was 6.68.

Take `Cc1ccc(S(=O)(=O)N2CCC(F)C2)cc1-c1cnc(N)c(-n2cncn2)n1` (stereo not drawn) [Example 127.2]: the negative logarithm of the IC50 (pIC50) was 6.49 in series [1]; 6.00 in series [9]; less than 5.00 in [2]; 5.77 in series [3]; 7.14 in series [4]; 5.03 in series [10]. For the same compound, the pIC50 in series [5] was 6.07; in series [6], 7.08; in [7] (Homo sapiens, Neutrophil), 5.45; in series [11], 6.07. For the same compound, in series [8], the “Assay M RLM CI(int)” value amounted to 375 µL/min/mg.

`Cc1ccc(S(=O)(=O)NCCC2(O)CCCCC2)cc1-c1cnc(N)c(-n2cncn2)n1` [Example 127.37]: the negative-log IC50 (pIC50) in series [1] is 6.19; in series [9] it was 5.85; in [2] it was less than 5.00; in series [3], 5.10; in series [4], 7.47; in [10] it was less than 5.00. Also, the negative logarithm of the IC50 (pIC50) in series [5] is 6.64; in series [6], 6.39; in [7] (Homo sapiens, Neutrophil), 5.21; in series [11] it was 5.82.

As to `Cc1ccc(S(=O)(=O)N2CC(C)(O)C2)cc1-c1cnc(N)c(-n2cncn2)n1` [Example 127.46], the pIC50 was 5.89 in [1]; less than 5.04 in [9]; less than 5.04 in [2]; 5.16 in series [3]; 7.14 in series [4]; less than 5.04 in series [10]. The pIC50 in series [5] was 6.15; in series [6] it was 6.26; in [7] (Homo sapiens, Neutrophil), 5.42; in series [11], 6.14. Moreover, in series [8], the “Assay M RLM CI(int)” value was 34 µL/min/mg.

In the case of `Cc1ccc(S(=O)(=O)NCC2(CO)COC2)cc1-c1cnc(N)c(-c2cn(C)nc2C)n1` [Example 128, 3-(5-Amino-6-(1,3-dimethyl-1H-pyrazol-4-yl)pyrazin-2-yl)-N-((3-(hydroxymethyl)oxetan-3-yl)methyl)-4-methylbenzenesulfonamide], the pIC50 was 6.82 in series [1]; 6.30 in series [9]; less than 5.00 in series [2]; 5.17 in series [3]; 7.85 in [4]; less than 5.00 in series [12]. Moreover, the pIC50 was 5.00 in series [13]; less than 5.00 in [14]; 6.68 in series [5]; 6.70 in series [6]; 5.52 in series [7] (Homo sapiens, Neutrophil); 7.00 in series [11]. Also, the “Assay M RLM CI(int)” value in series [8] is 22 µL/min/mg.

Take `Cc1ccc(S(=O)(=O)NC[C@H]2COCCN2)cc1-c1cnc(N)c(-c2cn(C)nc2C)n1` [Example 128.7, (S)-3-(5-Amino-6-(1,3-dimethyl-1H-pyrazol-4-yl)pyrazin-2-yl)-4-methyl-N-(morpholin-3-ylmethyl)benzenesulfonamide]: the pIC50 in [1] is 6.66; in [9], 5.72; in [2], less than 5.00; in series [3], less than 5.00; in series [4] it was 7.10; in [12] it was less than 5.00. Also, the negative logarithm of the IC50 (pIC50) is less than 5.00 in [13]; less than 5.00 in series [14]; 6.60 in series [5]; 6.93 in series [6]; 6.08 in series [7] (Homo sapiens, Neutrophil); 6.16 in series [11]. The “Assay M RLM CI(int)” value in series [8] is 20 µL/min/mg.
